As usually defined, the IC50 is the concentration at which inhibition is half-maximal.

One data set deals with PC-9. Nature of the data set: Antiproliferative activity against human PC-9 cells harboring EGFR Del19 mutant assessed as inhibition of cell growth incubated for 72 hrs by CCK8 assay. The data set is classed as functional, cell-based. As to conditions: PC-9, 72 h. (Tetrazolium assays rely on reduction of a dye to a coloured formazan, in cell work by metabolically active cells.)

A further data set deals with LoVo. Nature of the data set: Antiproliferative activity against human LoVo cells harboring wild-type EGFR assessed as reduction in cell growth incubated for 72 hrs by CCK8 assay. The data set is classed as functional, cell-based.
For data set [1], the target named is Epidermal growth factor receptor (Homo sapiens, UniProt P00533, L858R/T790M). Kind of data set: Inhibition of EGFR L858R/T790M (unknown origin).
Epidermal growth factor receptor, sequence (P00533 25-1210 T790M/L858R limits assumed): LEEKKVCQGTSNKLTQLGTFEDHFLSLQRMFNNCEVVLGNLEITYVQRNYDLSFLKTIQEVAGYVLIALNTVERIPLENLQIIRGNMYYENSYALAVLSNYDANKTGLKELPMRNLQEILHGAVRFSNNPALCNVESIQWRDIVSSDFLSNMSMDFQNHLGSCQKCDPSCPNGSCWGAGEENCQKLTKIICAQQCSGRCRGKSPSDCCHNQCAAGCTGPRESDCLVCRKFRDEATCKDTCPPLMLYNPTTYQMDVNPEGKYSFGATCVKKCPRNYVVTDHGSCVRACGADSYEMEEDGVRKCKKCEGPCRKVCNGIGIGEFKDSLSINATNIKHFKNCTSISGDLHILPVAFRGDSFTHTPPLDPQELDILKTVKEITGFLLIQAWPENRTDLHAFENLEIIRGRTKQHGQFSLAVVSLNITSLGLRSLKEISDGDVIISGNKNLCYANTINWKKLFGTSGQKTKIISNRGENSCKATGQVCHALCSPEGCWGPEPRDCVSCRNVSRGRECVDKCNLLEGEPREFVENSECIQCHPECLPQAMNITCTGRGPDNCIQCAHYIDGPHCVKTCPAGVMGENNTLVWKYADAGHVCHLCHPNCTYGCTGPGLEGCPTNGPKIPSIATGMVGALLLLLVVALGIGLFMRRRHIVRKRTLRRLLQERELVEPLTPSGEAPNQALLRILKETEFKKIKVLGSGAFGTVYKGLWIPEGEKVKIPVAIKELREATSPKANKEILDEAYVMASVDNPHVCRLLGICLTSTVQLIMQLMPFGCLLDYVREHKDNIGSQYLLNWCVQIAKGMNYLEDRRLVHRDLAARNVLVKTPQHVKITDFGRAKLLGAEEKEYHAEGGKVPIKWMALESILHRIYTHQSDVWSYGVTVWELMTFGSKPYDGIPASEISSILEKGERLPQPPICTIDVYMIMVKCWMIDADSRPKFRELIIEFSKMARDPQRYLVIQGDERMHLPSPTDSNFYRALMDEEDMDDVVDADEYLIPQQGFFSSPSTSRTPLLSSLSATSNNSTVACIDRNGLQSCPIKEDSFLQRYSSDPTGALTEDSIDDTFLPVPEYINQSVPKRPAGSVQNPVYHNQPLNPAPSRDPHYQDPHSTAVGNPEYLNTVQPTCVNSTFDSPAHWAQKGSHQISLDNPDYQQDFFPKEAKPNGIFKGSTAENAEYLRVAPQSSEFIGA
A short description of data set [2]: Antiproliferative activity against mouse Ba/F3 EGFR-T790M/L858R cells incubated for 3 days by Cell Titer-Glo assay. The data set is classed as functional, cell-based. To be noted: 72 h.
A short description of data set [3]: Antiproliferative activity against mouse KC-0116 cells. The data set is classed as toxicity, cell-based.

For the compound `C=CC(=O)Nc1cc(Nc2ncc(Cl)c(-c3cnn4ccccc34)n2)c(OC)cc1N1CC(N(C)C)C1`, the values for the half-inhibitory concentration (IC50) in the data set on PC-9 and in the data set on LoVo were 0.021 µM and 0.938 µM, respectively.
On to `C#CCN(C)CCN(C)c1cc(OC)c(Nc2nccc(Nc3ccn(C)n3)n2)cc1NC(=O)C=C`, for which the IC50 in data set [1] was found to be 0.00858 µM.
The same measure, in the same setting: with `C=CC(=O)Nc1cc(Nc2nccc(Nc3ccn(C)n3)n2)c(OC)cc1N(C)CCN(C)C` the figure was 0.0061 µM.
With `C=CC(=O)Nc1cc(Nc2nccc(Nc3ccn(C)n3)n2)c(OC)cc1N(C)CCN(C)CC(=O)OC`, in data set [1], 0.0423 µM corresponded to half-maximal inhibition (IC50).
Still for that read-out and setting: for `C=CC(=O)Nc1cc(Nc2nccc(Nc3cnn(CC)c3)n2)c(OC)cc1N(C)CCN(C)C` the value was 0.008 µM; for `COc1cc(N(C)CCN(C)C)c(NC(=O)c2ccnc(Cl)c2)cc1Nc1nccc(-c2cn(CCCO)c3ccccc23)n1`, 0.137 µM; for `COc1cc(N(C)CCN(C)C)c(NC(=O)c2cnccn2)cc1Nc1nccc(-c2cn(C)c3ccccc23)n1`, greater than 0.5 µM.
In turn, `COc1cc(N(C)CCN(C)C)c(NC(=O)c2ccncc2OC)cc1Nc1nccc(-c2cn(C)c3ccccc23)n1` returned a 50% inhibitory concentration (IC50) in data set [1] greater than 0.5 µM.
As to `COc1cc(N(C)CCN(C)C)c(NC(=O)c2ncccn2)cc1Nc1nccc(-c2cn(C)c3ccccc23)n1`, the IC50 in data set [1] was greater than 0.5 µM.
In the case of `COc1cc(N(C)CCN(C)C)c(NC(=O)c2ccncn2)cc1Nc1nccc(-c2cn(C)c3ccccc23)n1`, the 50% inhibitory concentration (IC50) in data set [1] was 0.242 µM.
Compound `COc1cc(N(C)CCN(C)C)c(NC(=O)c2ccncn2)cc1Nc1nccc(-c2cn(CCCO)c3ccccc23)n1` gave an IC50 in data set [1] of 0.161 µM.
On the same count and under the same terms, for `COc1cc(N(C)CCN(C)C)c(NC(=O)c2ccnc(Cl)c2)cc1Nc1nccc(-c2cn(C)c3ccccc23)n1` the value was 0.42 µM.
In the case of `COc1cc(N2CCC(N(C)C)CC2)c(NC(=O)CO)cc1Nc1nccc(-c2cn(C)c3ccccc23)n1`, the results for the IC50 in data set [2] and in data set [3] were 0.48 µM and 0.46 µM, respectively.
The like results for `CN(C)C1CCN(c2ccc(Nc3nccc(-c4cn(C)c5ccccc45)n3)cc2NS(C)(=O)=O)CC1` were, in that order, 0.17 µM and 0.16 µM.
In the case of `COc1cc(N(C)CCN(C)C)c(NC(=O)CN)cc1Nc1nccc(-c2cn(C)c3ccccc23)n1`, the figures for the IC50 in data set [2] and in data set [3] were 2.72 µM and 1.32 µM, respectively.
In the case of `Cn1cc(-c2ccnc(Nc3cccc(NC(=O)CCN)c3)n2)c2ccccc21`, the IC50 in data set [2] is 4.77 µM; in data set [3], 4.99 µM.
For `Cn1cc(-c2ccnc(Nc3ccc(N4CCC(N5CCOCC5)CC4)cc3)n2)c2ccccc21`, in that order: 5.74 µM and 1.71 µM.
For `COCC(=O)Nc1cc(Nc2nccc(-c3cn(C)c4ccccc34)n2)c(OC)cc1N1CCC(N(C)C)CC1`, in that order: 0.45 µM and 0.46 µM.
In the case of `CN(C)C1CCN(c2ccc(Nc3nccc(-c4cn(C)c5ccccc45)n3)cc2NS(=O)(=O)C2CC2)CC1`, the IC50 in data set [2] was 0.25 µM; in data set [3], 0.24 µM.
Turning to `CN(C)C1CCN(c2ccc(Nc3nccc(-c4cn(C)c5ccccc45)n3)cc2)CC1`, the IC50 in data set [2] was 0.45 µM; in data set [3] it was 0.4 µM.
The like results for `CN1CCN(C2CCN(c3ccc(Nc4nccc(-c5cn(C)c6ccccc56)n4)cc3NS(=O)(=O)C3CC3)CC2)CC1` were, in that order, 0.2 µM and 0.17 µM.
In the case of `COc1cc(N(C)CCN(C)C)c(NC(=O)CNC(=O)OC(C)(C)C)cc1Nc1nccc(-c2cn(C)c3ccccc23)n1`, the IC50 is 1.28 µM in data set [2] and 1.29 µM in data set [3].
For `Cn1cc(-c2ccnc(Nc3ccc(N4CCOCC4)cc3)n2)c2ccccc21`, in that order: greater than 10 µM and 7 µM.
For `Cn1cc(-c2ccnc(Nc3ccc(N4CCCCC4)cc3)n2)c2ccccc21`, in that order: greater than 10 µM and 10 µM.
`COc1cc(N2CCC(N3CCN(C)CC3)CC2)ccc1Nc1ncc(Cl)c(Nc2ccccc2P(C)(C)=O)n1` [BRIGATINIB]: the IC50 in data set [2] was 0.45 µM; in data set [3], 0.35 µM.

The values are drawn from ChEMBL document CHEMBL5576081, “Exploring the structural activity relationship of the Osimertinib: A covalent inhibitor of double mutant EGFRL858R/T790M tyrosine kinase for the treatment of Non-Small Cell Lung Cancer (NSCLC)” (Bioorg Med Chem, 2024).
